Source: patent US20040067915A1, “Method to treat cardiofibrosis with a combination of an angiotensin II antagonist and spironolactone” (G.D. Searle & Co., priority 1995, published 2004)
pIC50: −log10 of the molar value. Like-named read-outs stand apart in the source and are kept apart here. Values belong to the compound of their own block, whether it stands above or below them.

Legend:
[1] = target: T1, angiotensin II receptor (rabbit aortic rings) (Oryctolagus cuniculus, UniProt P34976); test: Assay B: In vitro Vascular Smooth Muscle Response for AII (rabbit aortic rings, pA2); type: cell-based; settings: two determinations given as a/b
T1 construct: The thoracic aorta was removed, cleaned of adherent fat and connective tissue and then cut into 3-mm ring segments; from tissue; host or cells: rabbit thoracic aorta rings, endothelium removed
T1 sequence (P34976 1-359): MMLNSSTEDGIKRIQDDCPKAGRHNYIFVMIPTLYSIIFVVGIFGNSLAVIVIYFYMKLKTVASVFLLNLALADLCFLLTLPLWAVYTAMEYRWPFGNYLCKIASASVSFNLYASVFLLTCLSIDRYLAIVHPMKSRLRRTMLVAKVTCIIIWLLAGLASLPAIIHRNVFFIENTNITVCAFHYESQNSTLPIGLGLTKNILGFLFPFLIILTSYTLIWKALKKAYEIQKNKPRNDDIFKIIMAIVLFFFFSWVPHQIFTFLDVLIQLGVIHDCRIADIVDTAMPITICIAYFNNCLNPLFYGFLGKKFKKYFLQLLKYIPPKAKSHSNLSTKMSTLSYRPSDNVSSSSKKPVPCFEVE
Method: Assay B: In vitro Vascular Smooth Muscle-response for AII
The compounds of the invention were tested for antagonist activity in rabbit aortic rings. Male New Zealand white rabbits (2-2.5 kg) were sacrificed using an overdose of pentobarbital and exsanguinated via the carotid arteries. The thoracic aorta was removed, cleaned of adherent fat and connective tissue and then cut into 3-mm ring segments. The endothelium was removed from the rings by gently sliding a rolled-up piece of filter paper into the vessel lumen. The rings were then mounted in a water-jacketed tissue bath, maintained at 37° C., between moveable and fixed ends of a stainless steel wire with the moveable end attached to an FT03 Grass transducer coupled to a Model 7D Grass Polygraph for recording isometric force responses. […] The preparations were equilibrated for one hour before approximately one gram of passive tension was placed on the rings. Angiotensin II concentration-response curves were then recorded (3×10^−10 to 1×10^−5 M). Each concentration of AII was allowed to elicit its maximal contraction, and then AII was washed out repeatedly for 30 minutes before rechallenging with a higher concentration of AII. Aorta rings were exposed to the test antagonist at 10^−5 M for 5 minutes before challenging with AII. Adjacent segments of the same aorta ring were used for all concentration-response curves in the presence or absence of the test antagonist. The effectiveness of the test compound was expressed in terms of pA2 values and were calculated according to H. O. Schild [Br. J. Pharmacol. Chemother., 2, 189-206 (1947)]. The pA2 value is […] which increases the EC50 value for AII by a factor of two. Each test antagonist was evaluated in aorta rings from two rabbits.
2Assay B: In vitro Vascular Smooth Muscle Response

[2] = target: angiotensin II AT1 receptor; test: Assay A: Angiotensin II Binding Activity (125I-AII displacement, rat uterine membrane preparation)
Method: Assay A: Antiotensin II Binding Activity
Compounds of the invention were tested for ability to bind to the smooth muscle angiotensin II receptor using a rat uterine membrane preparation. […] Rat uterine membranes were prepared from fresh tissue. All procedures were carried out at 4° C. Uteri were stripped of fat and homogenized in phosphate-buffered saline at pH 7.4 containing 5 mM EDTA. The homogenate was centrifuged at 1500×g for 20 min., and the supernatant was recentrifuged at 100,000×g for 60 min. The pellet was resuspended in buffer consisting of 2 mM EDTA and 50 mM Tris-HCl (pH 7.5) to a final protein concentration of 4 mg/ml. […] The reaction was initiates by the addition of membrane protein and the mixture was incubated at 25° C. for 60 min. The incubation was terminated with ice-cold 50 mM Tris-HCl (pH 7.5) and the mixture was filtered to separate membrane-bound labelled peptide from the free ligand. The incubation tube and filter were washed with ice-cold buffer. Filters were assayed for radioactivity in a Micromedic gamma counter. Nonspecific binding was defined as binding in the presence of 10 μM of unlabelled AII. Specific binding was calculated as total binding minus nonspecific binding. […] Binding data were analyzed by a nonlinear least-squares curve fitting program.
1Assay A: Angiotensin II Binding Activity

[3] = tested on: pressor response to AII; test: Assay C: In vivo Intragastric Pressor Assay Response for AII Antagonists; settings: rat
Method: Assay C: In vivo Intragastric Pressor Assay Response for All Antagonists
Male Sprague-Dawley rats weighing 225-300 grams were anesthetized with methohexital (30 mg/kg, i.p.) and catheters were implanted into the femoral artery and vein. The catheters were tunneled subcutaneously to exit dorsally, posterior to the head and between the scapulae. The catheters were filled with heparin (1000 units/ml of saline). The rats were returned to their cage and allowed regular rat chow and water ad libitum. After full recovery from surgery (3-4 days), rats were placed in Lucite holders and the arterial line was connected to a pressure transducer. Arterial pressure was recorded on a Gould polygraph (mmHg). Angiotensin II was administered as a 30 ng/kg bolus via the venous catheter delivered in a 50 μl volume with a 0.2 ml saline flush. The pressor response in mm Hg was measured by the difference from pre-injection arterial pressure to the maximum pressure achieved. The AII injection was repeated every 10 minutes until three consecutive injections yielded responses within 4 mmHg of each other. These three responses were then averaged and represented the control response to AII. The test compound was suspended in 0.5% methylcellulose in water and was administered by gavage. The volume administered was 2 ml/kg body weight. The standard dose was 3 mg/kg. Angiotensin II bolus injections were given at 30, 45, 60, 75, 120, 150, and 180 minutes after gavage. The pressor response to AII was measured at each time point. The rats were then returned to their cage for future testing. A minimum of 3 days was allowed between tests. Percent inhibition was calculated for each time point following gavage by the following formula: [(Control Response—Response at time point)/Control Response]×100.
3Assay C: In vivo Pressor Response

[4] = hypertensive patients, continued ACE inhibition; cited from earlier work
[5] = tested on: angiotensin II; settings: binding experiments, functional assays and in vivo tests; cited from earlier work
[6] = tested on: myocardial fibrosis in animal models; settings: cited from earlier work

Kb [1]: 2 nM
pIC50 [2]: 8.27
SMILES: CCCCc1nc(CCCC)n(Cc2ccc(-c3ccccc3-c3nnn[nH]3)cc2)n1 [Compound 3]
Assay C Duration ([3]; dose 10 mg/kg): >180 min
Assay C Duration ([3]; dose 30 mg/kg): 200^+ min.

SMILES: C[C@H](CS)C(=O)N1CCC[C@H]1C(=O)O [captopril]
plasma aldosterone [4]: gradual return of plasma aldosterone to baseline levels

SMILES: CCCCc1nc(Cl)c(CC(=O)[O-])n1Cc1ccccc1[N+](=O)[O-].[Na+] [sodium salt of 2-butyl-4-chloro-1-(2-nitrobenzyl)imidazole-5-acetic acid]
angiotensin II antagonist activity [5]: specific competitive angiotensin II antagonist activity

SMILES: CCCCc1nc(Cl)c(CC(=O)[O-])n1Cc1ccccc1Cl.[Na+] [sodium salt of 2-n-butyl-4-chloro-1-(2-chlorobenzyl)imidazole-5-acetic acid]
angiotensin II antagonist activity [5]: specific competitive angiotensin II antagonist activity

SMILES: CC(=O)S[C@@H]1CC2=CC(=O)CC[C@]2(C)[C@H]2CC[C@@]3(C)[C@@H](CC[C@@]34CCC(=O)O4)[C@H]12 [spironolactone, 17-hydroxy-7α-mercapto-3-oxo-17α-pregn-4-ene-21-carboxylic acid γ-lactone acetate]
myocardial fibrosis [6]: prevents myocardial fibrosis in animal models
myocardial fibrosis ([6]; listed as Spironolactone): prevent fibrosis in animal models irrespective of the development of left ventricular hypertrophy and the presence of hypertension
